According to paper PMC10149208, “A validated HPLC-MS/MS method for simultaneously analyzing curcumin, demethoxycurcumin, bisdemethoxycurcumin, tetra-hydrocurcumin and piperine in human plasma, urine or feces” (Heliyon, 2023):

Legend:
[1] = Freeze-thaw stability of QC stock solution in DMSO; type: physicochemical; conditions: stock 10 μM in DMSO at −20 °C
Description: Freeze-thaw stability of QC stock solution 10 μM at −20 °C was performed with stock solution that had underwent 0, 1 and 10 freeze-thaw cycles. Three samples per freeze-thaw cycle in MeOH:H2O 60%:40% were prepared at 100 nM and measured in duplicate. Four QC samples per concentration were prepared in plasma. Four replicates per sample were frozen for 60 min at −20 °C. All samples were thawed at room temperature and frozen ones (cycle 1). Per four replicates and concentrations the samples were thawed and frozen further a second, third or fourth time. All samples were thawed at the same time for simultaneous assessment with a calibration curve.

[2] = Stability of QC samples in plasma during storage in different conditions; type: in vitro ADME, human
[3] = Plasma concentration curve after single oral intake of curcuminoid capsules; type: in vivo, human; conditions: three participants, 4 capsules containing 600 mg curcuminoids, versus untreated sample
Description: (§1) One mL TBME was added to the mixture. Feces samples were first diluted 10.000x (four steps of 1:10 dilution) with Bovine Serum Albumin (BSA) 2% in Milli-Q water to reduce matrix effects before 50 μL IS-mix 100uM was added to 100 μL feces dilution. A second 100 μL sample with IS solution was hydrolyzed with 50 μL 20 U/μl β-glucuronidase, vortexed and after this addition incubated for 1 h at 37 °C. Following 1 mL TBME was added. After shaking for 15 min at 480 rpm/min all samples were centrifuged at 18213×g during 1 min. The lower aqueous layer was frozen on dry-iced ethanol and the upper organic layer of approximately 1 mL was decanted into a fresh tube and dried under vacuum using a Speedvac at room temperature. Next, samples were reconstituted with 100 μL MeOH:H2O 60%:40%, vortexed and sonicated for 5 min. After centrifuge at 18213×g during 3 min the supernatant was ready for injection into the HPLC-MS/MS.
(§2) Data from three healthy male participants included from a study researching the bioavailability of curcumin formulations is presented to show the applicability of the method in real-life settings. The participants signed informed consent and followed diet restrictions to avoid any curcumin or piperine intake five days before the visit day to ensure that only curcumin and/or piperine from the curcumin capsules were observed. On the visit day a plasma concentration curve at t = 0, 0.25, 0.50, 0.75, 1, 1.5, 2, 4, 8 and 24 h, collection of 24-h urine and 48-h feces were taken after single oral intake of 4 commercially available soft capsules containing 600 mg curcuminoids (curcumin, demethoxycurcumin and bisdemethoxycurcumin with 95% purity). The trial has been approved by the local institutional ethics committee and has been registered in the Dutch Clinical Trial Register under registration number NL6552. Each individual sample was analyzed according to the method described above.

[4] = 24-h urine concentration after single oral intake of curcuminoid capsules; type: in vivo, human; conditions: three participants, 4 capsules containing 600 mg curcuminoids, versus untreated sample
Description: as §1, §2

[5] = 48-h feces concentration after single oral intake of curcuminoid capsules; type: in vivo, human; conditions: 4 capsules containing 600 mg curcuminoids
Description: as §1, §2

[6] = system: retinal pigmented epithelial cells and retinal endothelial cells; parameters: method as in PMID 30013474; conditions: 10 μM; cited from earlier work
[7] = system: SW620 cells; parameters: method as in PMID 33812170; conditions: 10 μM, incubated for 2 days; cited from earlier work
[8] = system: pancreatic cancer; parameters: method as in PMID 18628464; conditions: Phase II; cited from earlier work
[9] = parameters: method as in PMID 9619120; conditions: rats; addition of 20 mg/kg piperine; cited from earlier work
[10] = QC 10, Room temperature - light
[11] = QC 50, Room temperature - light
[12] = QC 100, Room temperature - dark
[13] = QC 100, Room temperature - light

Row | Compound | Freeze-thaw stability, concentration relative to nominal ([1]; QC 100 nM 0x thawed) | Freeze-thaw stability, concentration relative to nominal ([1]; QC 100 nM 1x thawed) | Freeze-thaw stability, concentration relative to nominal ([1]; QC 100 nM 10x thawed) | Stability sample during storage ([2]; QC 10, AS (reference)) | Stability sample during storage ([2]; QC 10, On ice - dark) | Stability sample during storage ([2]; QC 10, Room temperature - dark) | Stability sample during storage [2, 10] | Stability sample during storage ([2]; QC 50, AS (reference)) | Stability sample during storage ([2]; QC 50, On ice - dark) | Stability sample during storage ([2]; QC 50, Room temperature - dark) | Stability sample during storage [2, 11] | Stability sample during storage ([2]; QC 100, AS (reference)) | Stability sample during storage ([2]; QC 100, On ice - dark) | Stability sample during storage [2, 12] | Stability sample during storage [2, 13] | Percentage in feces of the total expected dosage [5] | Plasma peak concentrations after treatment with β-glucuronidase [3] | Urine concentrations after treatment with β-glucuronidase [4] | other results
1 | O=C(/C=C/C=C/c1ccc2c(c1)OCO2)N1CCCCC1 [Piperine-135, piperine] | 100% | 101.8% | 101.7% | 100% | 77% | 78% | 77% | 100% | 90% | 85% | 90% | 100% | 89% | 85% | 85% |  |  |  | Increase of bioavailability of curcumin [9]: 154%
2 | COc1cc(CCC(=O)CC(=O)CCc2ccc(O)c(OC)c2)ccc1O [Tetrahydrocurcumin] | 100% | 101.0% | 100.0% | 100% | 96% | 89% | 88% | 100% | 99% | 93% | 93% | 100% | 94% | 88% | 87% |  | increase | increase | Presence in feces [5]: No tetrahydrocurcumin was found
3 | demethoxycurcumin [Demethoxy-curcumin] | 100% | 102.2% | 103.1% | 100% | 93% | 95% | 87% | 100% | 96% | 100% | 93% | 100% | 91% | 95% | 89% | 24.7% | increase | increase | 

Continued, in another order:

Row | Freeze-thaw stability, concentration relative to nominal ([1]; QC 100 nM 0x thawed) | Freeze-thaw stability, concentration relative to nominal ([1]; QC 100 nM 1x thawed) | Freeze-thaw stability, concentration relative to nominal ([1]; QC 100 nM 10x thawed) | Stability sample during storage ([2]; QC 10, AS (reference)) | Stability sample during storage ([2]; QC 10, On ice - dark) | Stability sample during storage ([2]; QC 10, Room temperature - dark) | Stability sample during storage [2, 10] | Stability sample during storage ([2]; QC 50, AS (reference)) | Stability sample during storage ([2]; QC 50, On ice - dark) | Stability sample during storage ([2]; QC 50, Room temperature - dark) | Stability sample during storage [2, 11] | Stability sample during storage ([2]; QC 100, AS (reference)) | Stability sample during storage ([2]; QC 100, On ice - dark) | Stability sample during storage [2, 12] | Stability sample during storage [2, 13] | Percentage in feces of the total expected dosage [5] | Compound | Plasma peak concentrations after treatment with β-glucuronidase [3] | Urine concentrations after treatment with β-glucuronidase [4] | other results
4 | 100% | 100.7% | 97.1% | 100% | 90% | 95% | 88% | 100% | 90% | 92% | 89% | 100% | 84% | 84% | 82% | 13% | O=C(/C=C/c1ccc(O)cc1)CC(=O)/C=C/c1ccc(O)cc1 [Bisdemethoxy-curcumin, bisdemethoxycurcumin] | increase | increase | 
5 | 100% | 99.8% | 96.8% | 100% | 76% | 83% | 82% | 100% | 89% | 94% | 91% | 100% | 87% | 90% | 89% | roughly 21.7% | COc1cc(/C=C/C(=O)CC(=O)/C=C/c2ccc(O)c(OC)c2)ccc1O [Curcumin, curcumin] | increase | increase | ROS concentration [6]: decrease; TNF-α release [6]: decrease; Phosphorylation levels of ERK and STAT1 [7]: significantly downregulated; Anecdotal beneficial effect, treated patients [8]: two out of 21
